Measured values reported in ChEMBL document CHEMBL1201862, “PubChem BioAssay data set” (2004).
Active and inactive are the calls of the source.

Columns and labels:
[1] = biological target: Botulinum neurotoxin type F (Clostridium botulinum, UniProt P30996); experiment: High-throughput multiplex microsphere dose response for inhibitors of toxin protease, specifically Botulinum neurotoxin light chain F protease, compounds from Cherry Pick 02.; assay type: functional; details: read-out: EC50_MICROM
Chain of Botulinum neurotoxin type F (P30996 1-436 limits assumed): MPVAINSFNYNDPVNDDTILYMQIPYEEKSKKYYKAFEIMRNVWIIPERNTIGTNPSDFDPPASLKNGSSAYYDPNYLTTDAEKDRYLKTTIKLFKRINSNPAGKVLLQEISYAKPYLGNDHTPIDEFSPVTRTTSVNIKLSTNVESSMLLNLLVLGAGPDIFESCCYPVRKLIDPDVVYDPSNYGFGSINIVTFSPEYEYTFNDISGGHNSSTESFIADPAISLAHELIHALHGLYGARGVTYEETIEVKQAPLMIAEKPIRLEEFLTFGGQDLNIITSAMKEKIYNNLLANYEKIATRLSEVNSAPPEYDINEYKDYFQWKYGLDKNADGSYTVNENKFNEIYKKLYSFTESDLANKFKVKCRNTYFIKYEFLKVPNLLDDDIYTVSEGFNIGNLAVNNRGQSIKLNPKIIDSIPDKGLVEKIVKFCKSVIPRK

[2] = biological target: Beta-galactosidase (Escherichia coli, UniProt Q8VNN2); experiment: Dose response counterscreen for EBI2 assay utilizing the enzyme, b-galactosidase.; assay type: functional
Chain of Beta-galactosidase (Q8VNN2 whole entry): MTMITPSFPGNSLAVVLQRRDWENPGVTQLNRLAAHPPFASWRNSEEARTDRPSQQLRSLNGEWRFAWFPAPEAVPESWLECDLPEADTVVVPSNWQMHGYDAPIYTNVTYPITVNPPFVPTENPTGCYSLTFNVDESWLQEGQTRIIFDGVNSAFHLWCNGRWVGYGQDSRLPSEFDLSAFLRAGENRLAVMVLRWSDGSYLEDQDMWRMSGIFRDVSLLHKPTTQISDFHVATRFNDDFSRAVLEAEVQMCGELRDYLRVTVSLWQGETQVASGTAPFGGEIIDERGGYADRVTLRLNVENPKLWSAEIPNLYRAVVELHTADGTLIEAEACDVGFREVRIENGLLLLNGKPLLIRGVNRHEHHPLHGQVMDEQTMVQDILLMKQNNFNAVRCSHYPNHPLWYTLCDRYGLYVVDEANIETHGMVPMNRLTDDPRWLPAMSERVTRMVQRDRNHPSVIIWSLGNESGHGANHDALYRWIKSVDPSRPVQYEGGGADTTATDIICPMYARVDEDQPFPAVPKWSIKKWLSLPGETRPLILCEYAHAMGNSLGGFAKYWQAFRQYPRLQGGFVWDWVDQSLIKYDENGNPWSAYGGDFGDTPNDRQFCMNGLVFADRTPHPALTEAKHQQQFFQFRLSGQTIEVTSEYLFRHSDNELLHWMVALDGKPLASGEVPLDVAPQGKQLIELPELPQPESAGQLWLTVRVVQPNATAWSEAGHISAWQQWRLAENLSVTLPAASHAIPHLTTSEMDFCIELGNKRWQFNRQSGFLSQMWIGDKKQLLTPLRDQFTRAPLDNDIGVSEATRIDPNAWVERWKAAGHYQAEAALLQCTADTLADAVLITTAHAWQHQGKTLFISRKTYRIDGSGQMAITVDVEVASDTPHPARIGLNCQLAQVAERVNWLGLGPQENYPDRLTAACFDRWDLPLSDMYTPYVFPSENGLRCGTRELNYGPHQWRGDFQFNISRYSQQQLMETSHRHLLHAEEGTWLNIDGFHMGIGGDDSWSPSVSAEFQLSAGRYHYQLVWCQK

[3] = biological target: Botulinum neurotoxin type A (Clostridium botulinum (strain Hall / ATCC 3502 / NCTC 13319 / Type A), UniProt P0DPI1); experiment: High-throughput multiplex microsphere dose response for inhibitors of toxin protease, specifically Botulinum neurotoxin light chain A protease, compounds from Powder Set 01.; assay type: functional, Clostridium botulinum A str. ATCC 3502; details: read-out: EC50_MICROM
Chain of Botulinum neurotoxin type A (P0DPI1 2-448 limits assumed): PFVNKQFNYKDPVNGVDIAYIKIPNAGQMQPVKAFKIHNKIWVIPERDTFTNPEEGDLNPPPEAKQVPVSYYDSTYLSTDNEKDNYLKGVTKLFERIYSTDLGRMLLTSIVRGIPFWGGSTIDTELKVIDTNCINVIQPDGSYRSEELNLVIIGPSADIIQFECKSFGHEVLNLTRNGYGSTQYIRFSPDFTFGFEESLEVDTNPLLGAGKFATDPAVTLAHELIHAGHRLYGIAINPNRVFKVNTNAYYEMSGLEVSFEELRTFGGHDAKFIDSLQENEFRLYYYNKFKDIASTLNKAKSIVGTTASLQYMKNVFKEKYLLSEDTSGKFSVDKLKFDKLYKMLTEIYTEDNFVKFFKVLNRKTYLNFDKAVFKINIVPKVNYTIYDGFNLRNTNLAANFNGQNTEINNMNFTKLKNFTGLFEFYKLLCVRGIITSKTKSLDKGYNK

[4] = biological target: Lethal factor (Bacillus anthracis, UniProt P15917); experiment: High-throughput multiplex microsphere dose response for inhibitors of toxin protease, specifically Lethal Factor protease, compounds from Powder Set 01.; assay type: functional, Bacillus anthracis str. A2012; details: read-out: EC50_MICROM
[5] = system: HEK293; experiment: EBV LMP1 TES2 canonical NF-kB signalling blockers – cell-based, HEK293, luciferase, cherry-pick, dose response (AID 588343); assay type: functional; details: Homo sapiens
[6] = biological target: T1, Interleukin-8 (Homo sapiens, UniProt P10145); experiment: Dose Response confirmation of uHTS small molecule hits for cystic fibrosis induced NFkb Inhibitors in a TNFa-induced IL8 counterscreen.; assay type: functional; details: read-out: IC50_Mean
T1 sequence (P10145 whole entry): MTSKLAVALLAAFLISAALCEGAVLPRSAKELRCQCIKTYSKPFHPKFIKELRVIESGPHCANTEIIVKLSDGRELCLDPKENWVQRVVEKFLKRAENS

[7] = biological target: T1, Interleukin-8; experiment: Dose Response confirmation of uHTS small molecule hits for cystic fibrosis induced NFkb Inhibitors in a PAF-induced IL8 counterscreen.; assay type: functional; details: read-out: IC50_Mean
[8] = biological target: Low molecular weight phosphotyrosine protein phosphatase (Homo sapiens, UniProt P24666); assay type: functional; details: read-out: IC50_Mean
Chain of Low molecular weight phosphotyrosine protein phosphatase (P24666 whole entry): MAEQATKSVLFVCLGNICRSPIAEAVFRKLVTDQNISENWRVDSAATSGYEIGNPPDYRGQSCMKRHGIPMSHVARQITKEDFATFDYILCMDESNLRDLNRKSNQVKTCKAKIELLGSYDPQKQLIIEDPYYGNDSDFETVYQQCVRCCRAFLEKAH

[9] = blockers of CRF-binding protein–CRF-R2 complex – cell-based, uHTS hits, 384-well, dose response (AID 651639); assay type: functional, Homo sapiens; details: read-out: IC50_Mean
[10] = biological target: Tyrosine-protein phosphatase non-receptor type 11 (Homo sapiens, UniProt Q06124); experiment: PTPN11 enzyme inhibitors – biochemical, selectivity assay for STEP inhibitor project, dose response (AID 602367); assay type: functional; details: read-out: IC50_Mean
Chain of Tyrosine-protein phosphatase non-receptor type 11 (Q06124 whole entry): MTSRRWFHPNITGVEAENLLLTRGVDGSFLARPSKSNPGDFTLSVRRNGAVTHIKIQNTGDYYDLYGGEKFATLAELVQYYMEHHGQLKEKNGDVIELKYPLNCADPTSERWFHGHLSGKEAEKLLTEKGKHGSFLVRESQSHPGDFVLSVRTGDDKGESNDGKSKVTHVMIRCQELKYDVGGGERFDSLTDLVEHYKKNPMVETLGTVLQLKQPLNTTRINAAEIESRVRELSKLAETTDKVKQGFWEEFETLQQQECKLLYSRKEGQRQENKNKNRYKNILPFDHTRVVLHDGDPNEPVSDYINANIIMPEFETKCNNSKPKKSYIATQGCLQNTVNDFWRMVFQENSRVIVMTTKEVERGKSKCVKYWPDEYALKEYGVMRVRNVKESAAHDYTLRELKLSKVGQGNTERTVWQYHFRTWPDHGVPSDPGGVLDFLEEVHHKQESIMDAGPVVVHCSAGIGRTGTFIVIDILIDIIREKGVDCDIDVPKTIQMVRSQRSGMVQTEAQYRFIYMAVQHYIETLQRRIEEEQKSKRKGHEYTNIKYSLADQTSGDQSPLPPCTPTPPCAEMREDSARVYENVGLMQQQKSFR

[11] = biological target: Tyrosine-protein phosphatase non-receptor type 5 (Homo sapiens, UniProt P54829); experiment: PTPN5 enzyme inhibition – biochemical, fluorescence intensity, uHTS hits, confirmation (AID 602372); assay type: functional; details: read-out: IC50_Mean
Chain of Tyrosine-protein phosphatase non-receptor type 5 (P54829 whole entry): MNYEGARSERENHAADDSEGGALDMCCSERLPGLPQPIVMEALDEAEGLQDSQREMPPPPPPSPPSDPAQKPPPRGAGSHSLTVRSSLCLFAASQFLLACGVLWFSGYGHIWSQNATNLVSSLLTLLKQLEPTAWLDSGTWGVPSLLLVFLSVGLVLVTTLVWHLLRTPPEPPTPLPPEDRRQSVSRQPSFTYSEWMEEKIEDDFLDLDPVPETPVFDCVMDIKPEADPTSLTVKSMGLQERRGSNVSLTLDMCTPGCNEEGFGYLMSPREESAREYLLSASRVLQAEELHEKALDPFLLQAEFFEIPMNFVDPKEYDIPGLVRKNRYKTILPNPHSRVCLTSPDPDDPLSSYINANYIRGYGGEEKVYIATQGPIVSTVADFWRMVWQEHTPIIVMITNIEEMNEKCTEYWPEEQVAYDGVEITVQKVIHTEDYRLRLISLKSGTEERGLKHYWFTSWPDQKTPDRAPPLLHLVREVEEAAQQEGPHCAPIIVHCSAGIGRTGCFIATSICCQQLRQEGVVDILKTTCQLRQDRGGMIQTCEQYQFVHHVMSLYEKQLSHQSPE

[12] = biological target: Dual specificity protein phosphatase 3 (Homo sapiens, UniProt P51452); experiment: VHR phosphatase inhibition, dose response, selectivity assay for STEP inhibitor project, biochemical (AID 602374); assay type: functional; details: read-out: IC50_Mean
Chain of Dual specificity protein phosphatase 3 (P51452 whole entry): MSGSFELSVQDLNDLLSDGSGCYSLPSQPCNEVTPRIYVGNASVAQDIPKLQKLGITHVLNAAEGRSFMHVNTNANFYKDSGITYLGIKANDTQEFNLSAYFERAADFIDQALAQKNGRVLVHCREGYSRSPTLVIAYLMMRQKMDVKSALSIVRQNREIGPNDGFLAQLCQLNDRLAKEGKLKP

[13] = biological target: T2, High affinity choline transporter 1 (Homo sapiens, UniProt Q9GZV3); experiment: human choline transporter blockers, potency – cell-based, 5-point CRC, membrane potential dye, dose response (AID 504840); assay type: functional
T2 sequence (Q9GZV3 whole entry): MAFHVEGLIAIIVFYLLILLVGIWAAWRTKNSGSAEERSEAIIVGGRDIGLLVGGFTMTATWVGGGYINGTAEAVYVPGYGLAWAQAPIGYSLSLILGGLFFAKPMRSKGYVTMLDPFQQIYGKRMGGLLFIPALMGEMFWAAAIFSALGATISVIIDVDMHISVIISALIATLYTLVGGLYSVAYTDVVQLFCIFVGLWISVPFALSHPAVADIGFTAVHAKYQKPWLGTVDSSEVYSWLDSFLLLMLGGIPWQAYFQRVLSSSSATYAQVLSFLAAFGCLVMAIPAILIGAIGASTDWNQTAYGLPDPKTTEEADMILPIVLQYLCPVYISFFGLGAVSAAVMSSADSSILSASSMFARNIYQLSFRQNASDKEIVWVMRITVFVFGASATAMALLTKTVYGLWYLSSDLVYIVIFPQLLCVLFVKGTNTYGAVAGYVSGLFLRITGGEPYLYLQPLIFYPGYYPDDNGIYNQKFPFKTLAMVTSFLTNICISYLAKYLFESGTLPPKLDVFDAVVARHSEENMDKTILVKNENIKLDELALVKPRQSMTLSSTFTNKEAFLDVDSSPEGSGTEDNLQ

[14] = biological target: T2, High affinity choline transporter 1; experiment: human choline transporter blockers, potency – cell-based, 10-point CRC, membrane potential dye, dose response (AID 588401); assay type: functional;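 also: membrane potential dye fluorescence of choline-evoked depolarization via CHT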
[15] = biological target: T3, Endoribonuclease toxin MazF (Escherichia coli K-12, UniProt P0AE70); experiment: activation of MazEF endoribonuclease cleavage – biochemical, fluorescence, single-stranded RNA substrate, uHTS hits, dose response (AID 588481); assay type: functional
T3 sequence (P0AE70 whole entry): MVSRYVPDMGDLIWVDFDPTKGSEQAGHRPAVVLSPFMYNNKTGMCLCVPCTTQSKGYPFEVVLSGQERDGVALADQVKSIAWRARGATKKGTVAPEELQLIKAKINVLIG

[16] = biological target: Benomyl/methotrexate resistance protein (Candida albicans, UniProt P28873); experiment: Candida albicans Mdr1 pump inhibition curves – singleplex, Cherry Pick1 hits, dose response (AID 588608); assay type: functional
Chain of Benomyl/methotrexate resistance protein (P28873 whole entry): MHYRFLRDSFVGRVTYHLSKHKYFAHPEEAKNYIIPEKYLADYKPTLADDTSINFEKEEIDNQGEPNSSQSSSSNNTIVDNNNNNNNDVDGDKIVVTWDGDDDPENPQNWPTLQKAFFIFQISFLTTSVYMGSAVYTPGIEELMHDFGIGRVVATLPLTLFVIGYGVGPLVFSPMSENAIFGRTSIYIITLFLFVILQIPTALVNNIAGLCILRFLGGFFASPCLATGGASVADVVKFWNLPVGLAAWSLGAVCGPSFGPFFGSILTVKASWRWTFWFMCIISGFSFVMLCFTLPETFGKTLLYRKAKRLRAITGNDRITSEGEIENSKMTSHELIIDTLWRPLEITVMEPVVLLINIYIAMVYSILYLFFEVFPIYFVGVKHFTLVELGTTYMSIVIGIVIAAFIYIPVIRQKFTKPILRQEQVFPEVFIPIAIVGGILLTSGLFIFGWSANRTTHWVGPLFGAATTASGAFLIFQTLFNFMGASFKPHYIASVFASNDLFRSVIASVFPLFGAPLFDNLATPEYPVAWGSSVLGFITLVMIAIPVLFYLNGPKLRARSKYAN

[17] = biological target: T3, Endoribonuclease toxin MazF; experiment: substrate-only fluorescence increase artefacts – biochemical, single-stranded RNase substrate, counter-screen for MazEF activator project, dose response (AID 588502); assay type: functional
[18] = inhibitors of EBV LMP1 NF-kappaB signaling – cell-based, luciferase reporter, luminescence, dry powder, set 2, dose response (AID 624376); assay type: functional
[19] = biological target: Beta Lactamase (Pseudomonas aeruginosa, UniProt Q932Y6);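 also: confirmatory high-throughput screen measuring VIM-2 metallo-beta-lactamase inhibition by epi-absorbance in dose response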
Chain of Beta Lactamase (Q932Y6 whole entry): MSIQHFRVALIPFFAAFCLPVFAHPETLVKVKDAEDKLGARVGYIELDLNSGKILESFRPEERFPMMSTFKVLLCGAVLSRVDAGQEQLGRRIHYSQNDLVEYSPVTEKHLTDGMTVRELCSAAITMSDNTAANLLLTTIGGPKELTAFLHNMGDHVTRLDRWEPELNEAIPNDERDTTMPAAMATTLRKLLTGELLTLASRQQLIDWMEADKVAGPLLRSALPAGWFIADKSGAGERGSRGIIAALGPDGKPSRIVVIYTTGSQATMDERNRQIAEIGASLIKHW

[20] = biological target: Beta-lactamase (Pseudomonas aeruginosa, UniProt Q79MP6);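 also: biochemical dose-response test of metallo-beta-lactamase enzyme inhibition, read out by epi-absorbance; purified recombinant IMP-1 metallo-beta-lactamase with nitrocefin as substrate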
Chain of Beta-lactamase (Pseudomonas aeruginosa, UniProt Q79MP6) (Q79MP6 whole entry): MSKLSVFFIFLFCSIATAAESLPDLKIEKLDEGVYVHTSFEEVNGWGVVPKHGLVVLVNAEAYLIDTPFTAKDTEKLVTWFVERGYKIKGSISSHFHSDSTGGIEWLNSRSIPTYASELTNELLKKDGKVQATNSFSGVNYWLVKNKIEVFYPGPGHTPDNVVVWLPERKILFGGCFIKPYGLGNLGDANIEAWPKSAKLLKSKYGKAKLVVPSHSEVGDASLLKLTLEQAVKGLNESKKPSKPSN

[21] = biological target: Beta-lactamase (Salmonella choleraesuis (strain SC-B67), UniProt Q5J463)
Chain of Beta-lactamase (Salmonella choleraesuis (strain SC-B67), UniProt Q5J463) (Q5J463 whole entry): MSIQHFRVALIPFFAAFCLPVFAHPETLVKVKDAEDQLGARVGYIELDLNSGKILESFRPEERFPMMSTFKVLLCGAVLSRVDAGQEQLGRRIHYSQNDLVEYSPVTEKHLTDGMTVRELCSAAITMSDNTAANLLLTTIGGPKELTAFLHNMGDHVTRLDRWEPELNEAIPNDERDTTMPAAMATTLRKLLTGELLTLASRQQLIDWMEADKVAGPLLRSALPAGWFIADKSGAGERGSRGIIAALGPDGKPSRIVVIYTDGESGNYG

[22] = system: Streptococcus sp. 'group A'; experiment: Streptococcus pyogenes SK(-)GAS viability under kanamycin – luminescence, BacTiterGlo, confirmation, counter-screen for streptokinase expression inhibitor project, dose response (AID 1900); assay type: functional, organism-based
[23] = biological target: T4, Streptokinase A (Streptococcus pyogenes serotype M1, UniProt P10520); experiment: viability-normalized secreted streptokinase activity reduction – plasminogen activation absorbance, OD405, dose response (AID 1914); assay type: functional, Streptococcus pyogenes M1 GAS;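 also: secreted streptokinase activity via plasminogen activation per viability signal from cell pellet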
T4 sequence (P10520 whole entry): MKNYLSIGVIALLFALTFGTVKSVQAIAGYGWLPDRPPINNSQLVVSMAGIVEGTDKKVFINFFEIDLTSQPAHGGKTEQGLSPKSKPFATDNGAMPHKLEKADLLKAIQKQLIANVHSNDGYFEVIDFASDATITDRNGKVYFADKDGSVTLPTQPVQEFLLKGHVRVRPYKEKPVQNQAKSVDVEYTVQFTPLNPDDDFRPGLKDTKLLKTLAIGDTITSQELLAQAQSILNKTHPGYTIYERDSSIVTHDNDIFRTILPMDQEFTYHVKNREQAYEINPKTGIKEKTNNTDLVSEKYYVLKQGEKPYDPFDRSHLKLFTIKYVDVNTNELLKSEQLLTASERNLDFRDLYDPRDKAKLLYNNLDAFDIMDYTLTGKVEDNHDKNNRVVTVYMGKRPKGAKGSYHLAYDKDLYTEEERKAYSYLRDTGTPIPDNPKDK

[24] = system: Streptococcus; experiment: GAS UMAA2166 growth inhibition – luminescence, BacTiterGlo, counter-screen for streptokinase expression inhibitor project, dose response (AID 1915); assay type: functional, organism-based;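 also: potency for reduction of bacterial viability or growth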
[25] = biological target: Matrix metalloproteinase-14 (Homo sapiens, UniProt P50281); experiment: Dose Response confirmation of uHTS hits for a small molecule inhibitors of MT1-MMP activation in a fluorescence assay set 1.; assay type: functional
[26] = biological target: Potassium voltage-gated channel subfamily KQT member 2 (Rattus norvegicus, UniProt O88943); experiment: blockers of KCNQ2 channel current – cell-based, automated electrophysiology, set II, rat KCNQ2, dose response (AID 588637); assay type: functional
[27] = Trypanosoma cruzi growth suppression in host cells – NIH3T3 host cells, beta-gal luminescence, confirmation (AID 2044); assay type: functional, cell-based;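 also: intracellular parasites grown in NIH/3T3 mouse fibroblasts as host cells; luminescent beta-galactosidase reporter signal from transgenic T. cruzi replicating inside host cells; inhibitors lower the luminescence signal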
[28] = NIH3T3 cell viability loss – ATP luminescence, mouse fibroblasts, counter-screen, dose response (AID 2010); assay type: functional, cell-based;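 also: cells exposed to compound for about 90 hours before reading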
[29] = biological target: T5, Carboxy-terminal domain RNA polymerase II polypeptide A small phosphatase 1 (Homo sapiens, UniProt Q9GZU7); experiment: CTDSP1 inhibitors, concentration-response, biochemical, absorbance readout, ultra-high-throughput screen actives (AID 540297); assay type: functional
T5 sequence (Q9GZU7 whole entry): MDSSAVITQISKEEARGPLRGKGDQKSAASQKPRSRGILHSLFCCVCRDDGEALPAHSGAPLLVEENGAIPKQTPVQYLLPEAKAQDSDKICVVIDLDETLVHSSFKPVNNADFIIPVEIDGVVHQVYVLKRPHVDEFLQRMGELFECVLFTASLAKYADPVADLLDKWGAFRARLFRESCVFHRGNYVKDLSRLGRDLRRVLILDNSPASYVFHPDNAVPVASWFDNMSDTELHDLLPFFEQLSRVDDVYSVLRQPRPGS

[30] = bead-based luminescence quenchers, dual-tagged ARNT – biochemical, AlphaScreen, cherry-pick, artefact control for ARNT-TACC3 interaction inhibitor project, dose response (AID 651705); assay type: functional;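 also: AlphaScreen bead proximity signal that flags compounds interfering with the detection technology; potency reflects signal decrease which marks the compound as an assay artifact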
[31] = inhibition of ARNT PAS-B/TACC3 complex formation – biochemical, AlphaScreen, cherry-picked samples, confirmation (AID 651703); assay type: functional, Homo sapiens;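 also: His-tagged ARNT PAS-B domain paired with GST-TACC3 E629A dimer coactivator fragment; potency of inhibitors that break up the complex and lower AlphaScreen signal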
[32] = biological target: T6, Caspase-6 (Homo sapiens, UniProt P55212); experiment: inhibition of CASP6 peptide cleavage – biochemical, VEID-R110 fluorescence, cherry-pick, dose response (AID 720632)
T6 sequence (P55212 whole entry): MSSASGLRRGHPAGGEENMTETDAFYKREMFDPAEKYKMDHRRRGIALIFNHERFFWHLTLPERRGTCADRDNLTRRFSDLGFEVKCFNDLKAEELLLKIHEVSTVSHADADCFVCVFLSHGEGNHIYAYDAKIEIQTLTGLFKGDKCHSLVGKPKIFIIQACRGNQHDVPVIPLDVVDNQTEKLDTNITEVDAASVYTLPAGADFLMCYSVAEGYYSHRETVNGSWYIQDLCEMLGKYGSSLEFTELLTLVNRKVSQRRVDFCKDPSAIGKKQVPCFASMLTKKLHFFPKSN

Cc1cc2nc(-c3cccc(Br)c3)c(Cc3cccc(Cl)c3)n2c(C)c1Br
EC50 [1]: > 20 µM (inactive)

O=C(/C=C/c1ccc(Cl)cc1)N1CCN(Cc2ccccc2)CC1
IC50 [2]: > 80 µM (inactive)

COc1ccc(-c2cn3nc(-c4ccccc4)c(-c4ccccc4)nc3n2)cc1
EC50 [3]: 4 µM (active) | EC50 [4]: 3.3 µM (active)

O=C(Nc1ccc(C(=O)N2CCOCC2)cc1)Nc1cccc(C(F)(F)F)c1
AC50 [5]: 3.04 µM (active) | IC50 [6]: > 79 µM (inactive) | IC50 [7]: 41.9 µM (inactive)

O=C(O)[C@@H]1[C@H]2C[C@H]3c4[nH]c5ccccc5c4CCN3C[C@@H]2CC[C@@H]1O
IC50 [8]: 67.6 µM (inactive)

Cc1sc2nc(CN(Cc3cccs3)C(=O)NC3CCCCC3)nc(O)c2c1C
IC50 [9]: 19.7 µM (active)

Cc1ccc(NC(=O)CN2C(=O)S/C(=C\c3ccc(OCC(=O)O)c(Br)c3)C2=O)cc1
IC50 [10]: 6.33 µM (active) | IC50 [11]: > 80 µM (inactive) | IC50 [12]: 6.91 µM (active)

O=C(C[n+]1cccc(Br)c1)c1ccccc1
IC50 [13]: 3.23 µM (active) | IC50 [14]: 2.84 µM (active)

COc1ccc(/C=C2\SC(c3ccc(C)cc3)=NC2=O)cc1OC
EC50 [15]: > 99 µM (inactive) | EC50 [16]: 5.12 µM (active) | EC50 [17]: > 99 µM (inactive)

O=C(Cc1ccccn1)NCC[C@H]1CC[C@H](NC(=O)Nc2ccc(Cl)cc2)[C@H](CO)O1
AbsAC35 [18]: 142.06 µM

CC(=O)N(c1cccc(C)c1)C1SC(=O)N(c2ccccc2)C1=O (centres undefined)
IC50 [19]: 54.3 µM (inactive) | IC50 [20]: 30.8 µM (inactive) | IC50 [21]: > 59.6 µM (inactive)

N#CC(C#N)=NNc1ccc([N+](=O)[O-])cc1
EC50 [22]: 3.82 µM (active) | EC50 [23]: > 150 µM (not active) | EC50 [24]: 9.99 µM (active) | IC50 [25]: 32.3 µM (inactive)

O=C(CN1C(=O)C(c2ccccc2)Oc2cccnc21)NCc1ccccc1F (centres undefined)
IC50 [26]: 1.81 µM (active)

COc1ccc(CC(=O)Nc2ncc([N+](=O)[O-])s2)cc1OC
EC50 [27]: 1.27 µM (active) | EC50 [28]: > 60 µM (not active) | IC50 [29]: 3.21 µM (active) | AC50 [30]: 117 µM (active) | AC50 [31]: 112 µM (active) | AC50 [32]: 2.89 µM (active)

CC(=O)OC1CC2(C)C(=O)CCC2C2CCc3cc(O)ccc3C12 (centres undefined)
IC50 [13]: 9.28 µM (active) | IC50 [14]: 3.36 µM (active)
